Patent US20220127682A1, “SELECTION AND TREATMENT OF CANCER WITH COMBINATION THERAPIES” (Massachusetts Institute of Technology, priority 2020, published 2022)
“Also recorded” adds a separate entry of the source. Read-outs that look alike come from different tables or passages of the source.

Key:
[1] = cited from earlier work
[2] = tested on: C4-2 castrate resistant prostate cancer cells; assay: Cell viability (CellTiter-Glo, 72 h) of drug combinations vs Bliss expected; format: cell-based; conditions: for tumor cell killing of PLK inhibitor combined with abiraterone, vs expected additive: C4-2 CRPC cells, 72 hours, Bliss independence
[3] = advanced solid tumors; cited from earlier work
[4] = tested on: panel of >50 other kinases; conditions: concentrations up to 10 μM; in vitro; cited from earlier work
[5] = cited from earlier work; remark: listed apart in the source
[6] = tested on: HCT116, NCI-H460, and taxane-resistant CXB1 colon carcinoma xenografts; conditions: mouse model; ~25 mg/kg/day; cited from earlier work
xenograft tumor models = conditions: under proper dose scheduling; cited from earlier work
[7] = cited from earlier work; remark: listed apart in the source
[8] = tested on: various human tumor cell lines; conditions: cited from earlier work
mouse xenograft models = conditions: 10 mg/kg and 20 mg/kg on days 1 and 28; cited from earlier work
PLK1 = PLK1 (Homo sapiens, UniProt P53350); conditions: cited from earlier work
[9] = doses of 24 to 48 mg/m^2 for 5 consecutive days every 4 weeks; cited from earlier work
[10] = cited from earlier work; remark: listed apart in the source
cell mitosis = conditions: read-out: EC50, inhibition of cell mitosis; cited from earlier work
[11] = preclinical, cited from earlier work
[12] = tested on: Cdc25C-T96 phosphorylation; conditions: read-out: EC50, Cdc25C-T96 phosphorylation; cited from earlier work
[13] = molecular target: several tyrosine kinases and cyclin-dependent kinase 1 (Cdk1); conditions: cited from earlier work
BT20 cells xenograft = conditions: 200 mg/kg; cited from earlier work
[14] = cited from earlier work; remark: listed apart in the source
[15] = tested on: Bel-7402, MCF-7, and MIA-PaCa cells xenografts; conditions: 250 mg/kg; Bel-7402, MCF-7, MIA-PaCa xenografts; cited from earlier work
skin cancer cell A375 = conditions: read-out: anti-proliferative IC50; cited from earlier work
[16] = tested on: colorectal cancer cell HT-29; conditions: read-out: anti-proliferative IC50; cited from earlier work
[17] = tested on: lung cancer cell line H82; conditions: read-out: anti-proliferative IC50; cited from earlier work
[18] = tested on: breast cancer cell MDA-MB-468; conditions: read-out: anti-proliferative IC50; cited from earlier work
prostate cancer cell PC3 = conditions: read-out: anti-proliferative IC50; cited from earlier work
[19] = tested on: HT-29 human colorectal tumors; conditions: HT-29 tumors in nude mouse, cited from earlier work
[20] = tested on: several tumor cell lines, including those that express MDR1; conditions: including lines that express multidrug-resistant protein 1 (MDR1); cited from earlier work
[21] = tested on: C4-2 CRPC cells expressing histone H2B-mCherry and mEmerald-tubulin; assay: Time-lapse live-cell microscopy and spindle orientation analysis; format: cell-based; conditions: for frequency of division not parallel to the growth surface: live-cell microscopy; for spindle orientation / spindle rotation during mitosis: net angular displacement and cumulative angular distance
Experimental: C4-2 CRPC cells expressing histone H2B-mCherry and mEmerald-tubulin. were plated in 12-well plates in phenol red free media, the following day drugs were added as indicated and the cells were imaged on a EVOS™ FL Auto Cell Imaging System equipped with an onstage incubator to maintain 37° C., adequate humidity, and 5% CO2. Images were acquired at 15-minute intervals for 72 hours using a 20× objective lens. For the rotation analysis, the angle of the spindles major axis was tracked starting from when it was first apparent, prometaphase, until telophase. The net angular displacement is the total change in angle of the spindle during mitosis from start until finish and is the absolute value of the sum of all stepwise rotations. The cumulative angular distance is the total amount of rotation regardless of direction that occurred during mitosis and is the sum of the absolute value of all rotations.

C4-2 CRPC cells = assay: Identification of mitotic (pHH3) and apoptotic (cleaved caspase-3) cells by flow cytometry; format: cell-based; conditions: drug added to onvansertib
Experimental: C4-2 CRPC cells were plated in 6-well plates at a density of 300,000 cells per well and a total volume of 3 mls. The following day the indicated drugs were diluted in the appropriate growth media while maintaining a constant final concentration of DMSO and added to the wells. After the indicated amount of time cells were harvested by trypsinization. The media, trypsin and PBS wash were collected together to avoid loss of loosely attached or detached cells. Cells were fixed in 4% formaldehyde in PBS for 15 minutes, washed with PBS containing 1% bovine serum albumin (PBS-BSA), and then stored in methanol at −20° C. overnight. Cells were then washed twice in PBS-BSA 0.1% Tween-20, incubated with primary antibodies overnight at 4° C., washed with PBS-BSA 0.1% Tween-20 and incubated for 1 hour with fluorescent-dye conjugated secondary antibodies (diluted 1:200, Alexa Fluor, Molecular Probes) at room temperature for 1 hour. Primary antibodies included anti-phospho-serine 10 histone H3 (clone 3H10, Millipore) and anti-active caspase-3 (clone C92-605, BD Pharmingen). The fixed cells were then washed with PBS-BSA 0.1% Tween-20 and resuspended in PBS containing 1 μg/ml 4,6-diamidino-2-phenylindole (DAPI, Molecular Probes) to stain DNA and analyzed using a BD™ LSRII flow cytometer (Becton Dickinson) and the FlowJo™ software package.

[22] = tested on: PSN-1 pancreatic cancer cells; assay: Cell viability (CellTiter-Glo, 72 h) of drug combinations vs Bliss expected; format: cell-based; conditions: onvansertib 22.2 nM plus abiraterone
[23] = tested on: OAW28 ovarian cancer cells; assay: as above; format: cell-based; conditions: onvansertib 15 nM plus abiraterone
[24] = tested on: MV-4-11 acute myeloid leukemia cells; assay: as above; format: cell-based; conditions: onvansertib 22.2 nM plus abiraterone
[25] = tested on: Panc 10.05 pancreatic cancer cells; assay: as above; format: cell-based; conditions: onvansertib 33.3 nM plus abiraterone
[26] = tested on: LNCaP androgen-dependent prostate cancer cells; assay: as above; format: cell-based; conditions: Bliss independence
[27] = tested on: OCI-AML-3 acute myeloid leukemia cells; assay: as above; format: cell-based; conditions: onvansertib 22.2 nM plus abiraterone
[28] = tested on: tumor cells and normal cells; conditions: cited from earlier work
[29] = tested on: large number of cell lines, solid and hematological tumors; conditions: cited from earlier work
[30] = tested on: more than 90 cell lines (multiple cancer types); assay: Combinatorial drug screening of more than 90 cell lines for more than additive effect; format: cell-based; conditions: onvansertib and abiraterone; more than 90 cell lines screened; data not shown

Sequence of PLK1 (P53350 whole entry): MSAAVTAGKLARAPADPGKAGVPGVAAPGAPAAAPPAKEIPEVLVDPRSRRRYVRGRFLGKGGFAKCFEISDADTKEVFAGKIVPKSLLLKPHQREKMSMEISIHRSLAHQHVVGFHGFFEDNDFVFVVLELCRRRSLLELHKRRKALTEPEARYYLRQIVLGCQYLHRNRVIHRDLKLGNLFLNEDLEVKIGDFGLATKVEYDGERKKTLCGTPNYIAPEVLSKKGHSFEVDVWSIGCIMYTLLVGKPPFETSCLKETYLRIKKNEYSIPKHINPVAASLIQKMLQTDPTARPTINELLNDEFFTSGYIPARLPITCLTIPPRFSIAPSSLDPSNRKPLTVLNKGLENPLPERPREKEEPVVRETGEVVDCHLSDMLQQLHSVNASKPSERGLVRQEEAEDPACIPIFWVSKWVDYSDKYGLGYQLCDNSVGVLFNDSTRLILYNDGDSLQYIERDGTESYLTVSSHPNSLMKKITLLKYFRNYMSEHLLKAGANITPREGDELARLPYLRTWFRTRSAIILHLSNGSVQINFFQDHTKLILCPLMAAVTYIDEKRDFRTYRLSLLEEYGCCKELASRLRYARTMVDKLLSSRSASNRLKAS

Question: With `CC(=O)O[C@H]1CC[C@@]2(C)C(=CC[C@@H]3[C@@H]2CC[C@]2(C)C(c4cccnc4)=CC[C@@H]32)C1` [Abiraterone acetate, abiraterone acetate] as the compound, how does the solubility in water [1] read?
Answer: practically insoluble

Question: With `CC[C@@H]1C(=O)N(C)c2cnc(Nc3ccc(C(=O)N[C@H]4CC[C@H](N5CCN(CC6CC6)CC5)CC4)cc3OC)nc2N1C(C)C` [BI6727, volasertib] as the compound, how does the “tumor cell killing of PLK inhibitor combined with abiraterone, vs expected additive” value [2] read?
Answer: more than additive

Question: What about the “MTD in combination with afatinib” value [3] of the same compound?
Answer: 300 mg

Question: And the “inhibitory activity against a panel of >50 other kinases” value [4]?
Answer: no inhibitory activity

Question: What about the “recommended dose for further development” value ([5]; based on overall tolerability) of the same compound?
Answer: 300 mg

Question: And the MTD ([5]; i.v. once every 3 weeks, advanced solid tumors)?
Answer: 400 mg

Question: What about the DLTs ([5]; i.v. once every 3 weeks, dose escalation 12-450 mg) of the same compound?
Answer: neutropenia, thrombocytopenia, and febrile neutropenia

Question: And the “growth of multiple human carcinoma xenografts” value [6]?
Answer: significantly inhibits the growth

Question: Which “tumor cell killing of PLK inhibitor combined with abiraterone, vs expected additive” value [2] does the source give for `C[C@@H](Oc1cc(-n2cnc3ccc(CN4CCN(C)CC4)cc32)sc1C(N)=O)c1ccccc1C(F)(F)F` [GSK461364] here?
Answer: more than additive

Question: And the “effect in xenograft tumor models” value (xenograft tumor models)?
Answer: tumor regression

Question: What about the DLTs ([7]; i.v., schedules A and B, 28-day cycle) of the same compound?
Answer: grade 4 neutropenia, sepsis, and pulmonary embolism

Question: What about the “incidence of venous thrombotic emboli (VTE)” value ([7]; in vivo) of the same compound?
Answer: 20%

Question: And the “final recommended phase II dose” value ([7]; intravenously, schedule A (days 1, 8, and 15))?
Answer: 225 mg

Question: For `COc1ccc(S(=O)(=O)Nc2ccccc2/C=C/c2cc[n+]([O-])cc2)cc1` [HMN-176], which “cytotoxicity toward various human tumor cell lines” value [8] is on record?
Answer: potent cytotoxicity

Question: And the “antitumor activity in mouse xenograft models” value (mouse xenograft models)?
Answer: potent antitumor activity

Question: What about the “enzymatic activity of PLK1” value (PLK1; affects subcellular distribution of PLK1 instead) of the same compound?
Answer: does not directly inhibit

Question: For `COc1ccc(S(=O)(=O)N(C(C)=O)c2ccccc2/C=C/c2cc[n+]([O-])cc2)cc1` [HMN-214], which DLTs [9] is on record?
Answer: prolonged neutropenia, febrile neutropenia, neutropenic sepsis, electrolyte disturbance, neuropathy, and myalgia

Question: And the dose-limiting toxicities ([10]; at 9.9 mg/m^2/d)?
Answer: severe myalgia/bone pain syndrome and hyperglycemia

Question: And the “maximum tolerated dose and recommended dose” value ([10]; continuous 21-day dosing schedule every 28 days)?
Answer: 8.0 mg/m^2/d

Question: Which EC50 (cell mitosis) does the source give for `Cc1ncc(CCCN(C)C)cc1Nc1ncc2c(n1)-c1ccc(C(F)(F)F)cc1NC(=S)C2` [MLN0905] here?
Answer: 9 nM

Question: And the maximum tolerated dose ([11]; QD (daily) schedule)?
Answer: 6.25 mg/kg

Question: What about the maximum tolerated dose ([11]; QD×3/wk (3-days on/4-days off) schedule) of the same compound?
Answer: 14.5 mg/kg

Question: What about the EC50 [12] of the same compound?
Answer: 29 nM

Question: With `COc1cc(OC)c(/C=C/S(=O)(=O)Cc2ccc(OC)c(NCC(=O)[O-])c2)c(OC)c1.[Na+]` [ON 01910, rigosertib] as the compound, how does the IC50 [13] read?
Answer: 18 to 260 nM

Question: What about the tumor growth (BT20 cells xenograft) of the same compound?
Answer: inhibition of tumor growth

Question: What about the DLT ([14]; at the MTD) of the same compound?
Answer: Grade 3 abdominal pain

Question: What about the MTD ([14]; i.v., days 1, 4, 8, 11, 15, and 18 in 28-day cycles) of the same compound?
Answer: 3,120 mg

Question: What about the tumor growth [15] of the same compound?
Answer: inhibited tumor growth

Question: For `COc1cc(C(=O)NC2CCN(C)CC2)ccc1NC1NCC2C(N1)N(C1CCCC1)CC(F)(F)C(=O)N2C` (stereo not shown) [RO3280], which IC50 (skin cancer cell A375) is on record?
Answer: 70 nM

Question: And the IC50 [16]?
Answer: 10 nM

Question: And the IC50 [17]?
Answer: 5 nM

Question: What about the IC50 [18] of the same compound?
Answer: 19 nM

Question: What about the IC50 (prostate cancer cell PC3) of the same compound?
Answer: 12 nM

Question: And the antitumor activity ([19]; dosed more frequently)?
Answer: complete tumor regression

Question: What about the tumor growth inhibition ([19]; once weekly at 40 mg/kg) of the same compound?
Answer: 72%

Question: What about the IC50 (PLK1) of the same compound?
Answer: 3 nM

Question: Which “activity in tumor cell lines” value [20] does the source give for `COc1cc(C(=O)NC2CCN(C)CC2)c(F)cc1Nc1ncc2c(n1)N(C1CCCC1)CC(F)(F)C(=O)N2C` [TAK-960] here?
Answer: shown activity

Question: Which “frequency of division not parallel to the growth surface” value [21] does the source give for `C[C@]12CC[C@H](O)CC1=CC[C@@H]1[C@@H]2CC[C@]2(C)C(c3cccnc3)=CC[C@@H]12` [abiraterone] here?
Answer: increased

Question: What about the “spindle orientation / spindle rotation during mitosis” value [21] of the same compound?
Answer: disrupted proper spindle orientation

Question: What about the “effect on apoptotic cell death (cleaved Caspase-3 positive cells) after onvansertib” value (C4-2 CRPC cells) of the same compound?
Answer: exacerbates subsequent apoptotic cell death

Question: And the “effect on mitotic arrest (pHH3 positive cells) caused by PLK1 inhibitor onvansertib” value (C4-2 CRPC cells)?
Answer: dramatically increased the frequency of mitotic arrest; also recorded: enhances the mitotic arrest

Question: For `CNC(=O)c1ccc(N2C(=S)N(c3ccc(C#N)c(C(F)(F)F)c3)C(=O)C2(C)C)cc1F` [enzalutamide], which “more than additive effect with PLK1 inhibitors” value ([2]; C4-2 cells, enzalutamide combined with onvansertib or BI2536) is on record?
Answer: not observed

Question: And the “frequency of division not parallel to the growth surface” value [21]?
Answer: did not result in these phenotypes

Question: What about the “spindle orientation / spindle rotation during mitosis” value [21] of the same compound?
Answer: did not result in these phenotypes

Question: What about the “effect on mitotic arrest (pHH3 positive cells) caused by PLK1 inhibitor onvansertib” value (C4-2 CRPC cells) of the same compound?
Answer: does not enhance the mitotic arrest

Question: Which “tumor cell killing of PLK inhibitor combined with abiraterone, vs expected additive” value [2] does the source give for `CN1CCN(c2ccc(OC(F)(F)F)c(Nc3ncc4c(n3)-c3c(c(C(N)=O)nn3CCO)CC4)c2)CC1` [onvansertib] here?
Answer: more than additive

Question: And the “response to the combination of abiraterone and PLK1 inhibitor vs expected additive” value [22]?
Answer: greater than additive response

Question: What about the “response to the combination of abiraterone and PLK1 inhibitor vs expected additive” value [23] of the same compound?
Answer: do not have a greater than additive response

Question: What about the “response to the combination of abiraterone and PLK1 inhibitor vs expected additive” value [24] of the same compound?
Answer: greater than additive response

Question: What about the “response to the combination of abiraterone and PLK1 inhibitor vs expected additive” value [25] of the same compound?
Answer: do not have a greater than additive response

Question: And the “viability effect of PLK1 inhibitor combined with abiraterone, vs expected additive” value [26]?
Answer: No greater than additive effect

Question: What about the “response to the combination of abiraterone and PLK1 inhibitor vs expected additive” value [27] of the same compound?
Answer: do not have a greater than additive response

Question: And the “sensitivity of tumor cells to induced cell death relative to normal cells” value [28]?
Answer: 10 fold

Question: And the “activity in proliferation assays” value [29]?
Answer: low nanomolar activity

Question: What about the “cell lines in which the more than additive effect was detected” value [30] of the same compound?
Answer: approximately 30%
